From paper PMC4800182 (Frontiers in Microbiology, 2016)
Where a name gives a salt, the structure may show the parent alone.

Legend:
[1] = system: A(H1N1)pdm09 influenza virus A/Jena/8178/09; assay: Inhibition of Jena/8178 replication (yield, spread) by NAI in A549 cells in presence of rNanA; format: cell-based; settings: for spread and yield of the virus in the presence of NanA: oseltamivir at 1 μM; for Percentage of Virus Yield after NAI Treatment, with rNanA: 48 h after infection, rNanA 1:10,000, untreated control = 100%
Description: (§1) Confluent MDCK and A549 cells were mock-infected with test medium or infected with Jena/8178 (0.1 TCID50/cell) for 1 h (37°C; 5% CO2). After three washing steps with test medium, test medium or various rNanA or rNanB dilutions (1:100 to 1:1,000,000) were added. After 48 h at 37°C the supernatant was taken and stored at –20°C until plaque titer determination (virus yield analysis). The remaining cells were fixed with ice-cold methanol for 20 min and stored after washing with PBS in PBS at 4°C until immunocytochemical staining (virus spread analysis).
(§2) To determine the virus yield in collected supernatants, plaque assays were conducted on confluent MDCK cells grown in 12-well tissue culture plates (Greiner Bio-One GmbH). Briefly, after virus adsorption (37°C; 1 h), inoculum was replaced by 1 mL test medium containing also 0.4% agarose and 50 mM magnesium chloride (VEB Laborchemikalien, Apolda, Germany). After 48 h of incubation at 37°C, cells were fixed and stained with a solution of 0.4% crystal violet in a mixture of formalin (3% v/v) and ethanol (1.67% v/v) in water overnight. Plaques were counted over a light box after removal of the agar overlay.
(§3) Virus spread was analyzed by detecting viral nucleoprotein with a monoclonal antibody (Acris GmbH, Hiddenhausen, Germany) by immunocytochemical staining according to the manufacturers protocol (DAKO, Hamburg, Germany; [Bauer et al., 2007]).
(§4) The inhibitory effect of the NAI on Jena/8178 (inhibition of virus yield and spread) was determined in absence and presence of rNanA or rNanB in A549 cells.
(§5) ^a The plaque titer of untreated control (influenzavirus A/Jena/8178/09) reached in A549 cells (48 h after infection) in the absence and presence of rNanA or rNanB was set as 100% virus yield. It was used to calculate the percentage of virus yield after NAI treatment. Mean and standard deviations were calculated of at least three assays with two replicates.

[2] = system: A(H1N1)pdm09 influenza virus A/Jena/8178/09; assay: Inhibition of Jena/8178 replication (yield, spread) by NAI in A549 cells, without pneumococcal NA; format: cell-based; settings: 48 h after infection, untreated control = 100%
Description: as §1, §2, §3, §4, §5

[3] = system: A(H1N1)pdm09 influenza virus A/Jena/8178/09; assay: Inhibition of Jena/8178 replication (yield, spread) by NAI in A549 cells in presence of rNanB; format: cell-based; settings: 48 h after infection, rNanB 1:10,000, untreated control = 100%
Description: as §1, §2, §3, §4, §5

[4] = biological target: T1, rNanA (Streptococcus pneumoniae, UniProt P62575); assay: HA assay (hemagglutination of NA-treated human erythrocytes with peanut lectin), inhibition of rNanA; format: biochemical, Streptococcus pneumoniae DSM20566; settings: 1 h incubation
T1 construct: made in house; host or cells: E. coli
T1 sequence (P62575 54-1035): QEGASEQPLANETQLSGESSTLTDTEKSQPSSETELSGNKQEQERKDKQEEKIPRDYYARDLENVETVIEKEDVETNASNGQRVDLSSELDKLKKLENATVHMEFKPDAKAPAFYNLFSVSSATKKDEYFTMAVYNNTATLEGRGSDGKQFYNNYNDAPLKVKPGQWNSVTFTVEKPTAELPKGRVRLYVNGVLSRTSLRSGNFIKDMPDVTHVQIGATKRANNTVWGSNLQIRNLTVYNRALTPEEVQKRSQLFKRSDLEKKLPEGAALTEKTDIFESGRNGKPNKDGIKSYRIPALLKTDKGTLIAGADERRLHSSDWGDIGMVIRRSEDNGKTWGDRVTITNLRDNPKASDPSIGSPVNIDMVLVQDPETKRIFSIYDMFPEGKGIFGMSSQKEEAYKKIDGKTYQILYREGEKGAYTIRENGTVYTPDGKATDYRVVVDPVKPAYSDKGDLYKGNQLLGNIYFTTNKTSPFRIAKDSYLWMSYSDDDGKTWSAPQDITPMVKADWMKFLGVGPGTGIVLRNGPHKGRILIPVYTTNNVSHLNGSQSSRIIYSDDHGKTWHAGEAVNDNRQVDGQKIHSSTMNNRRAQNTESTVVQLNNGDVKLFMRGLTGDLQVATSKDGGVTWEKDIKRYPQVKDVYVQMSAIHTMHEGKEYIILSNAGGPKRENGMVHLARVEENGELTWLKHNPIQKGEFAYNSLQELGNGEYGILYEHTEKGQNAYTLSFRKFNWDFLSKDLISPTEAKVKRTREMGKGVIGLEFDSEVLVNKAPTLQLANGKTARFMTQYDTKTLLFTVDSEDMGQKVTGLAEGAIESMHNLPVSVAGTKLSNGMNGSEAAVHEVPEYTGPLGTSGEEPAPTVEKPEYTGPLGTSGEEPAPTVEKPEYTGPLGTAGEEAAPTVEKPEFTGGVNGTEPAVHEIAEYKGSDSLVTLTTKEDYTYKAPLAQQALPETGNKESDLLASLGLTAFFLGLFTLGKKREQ
Description: Neuraminidase activity of both NAs was further confirmed based on hemagglutination of NA-treated human erythrocytes in the presence of peanut lectin (HA assay) as described recently ([Richter et al., 2015]; [Walther et al., 2015]).
(§6) The NAI susceptibility of rNanA and rNanB was evaluated with FL assay (rNanA and rNanB diluted 1:10,000 in FL buffer; pH 6.5) and HA assay as published recently ([Richter et al., 2015]) with slight modification of the HA assay. For stability reasons, rNanA and rNanB were diluted 1:5,000 in phosphate buffered saline (PBS) containing 100 μg/mL bovine serum albumin and stored at –20°C until use. The incubation period of the recombinant proteins with the human erythrocytes was only 1 h. At least three individual experiments were performed.

[5] = biological target: Influenza Virus A/Jena/8178/09 Neuraminidase (Influenza A virus (A/Jena/8178/2009(H1N1)), UniProt A0A088CA11); assay: FL assay, inhibition of viral neuraminidase; format: biochemical; settings: A/Jena/8178/09 NA; maximum tested concentration 100 μM; read-out: Inhibitory Concentration of NAIs, FL Assay (mean IC50)
[6] = system: T2, rNanB; assay: Fluorescence-based NA assay with eight MUNANA concentrations (3.13 to 400 uM) at pH 6.5, enzymes diluted 1:10,000, stopped after 5 min, 4-MU release fitted to the Michaelis-Menten equation by non-linear regression.; format: biochemical; settings: n = 3
T2 construct: recombinant, expressed in E. coli from pET-28a (pTNB20566); C-terminal 6xHis tag; 699 amino acid residues
Description: (§7) Activity of 10-fold dilutions (1:1,000 to 1:100,000) of rNanA and rNanB was determined with a fluorescence-based NA assay (FL assay) using the substrate 2-(4-methylumbelliferyl)-α-D-N-acetylneuraminic acid sodium salt hydrate (MUNANA, Sigma–Aldrich GmbH) as published ([Richter et al., 2015]). The activity of rNanB was additionally tested at pH 5. Relative FL units (RFU) were read using the microplate reader FLUOstar Omega (BMG Labtech GmbH, Ortenberg, Germany) and converted to 4-MU concentration (Sigma–Aldrich GmbH) according to the 4-MU standard curve (Supplementary Figure 1). Velocity (μM/min) and Km value (μM) for rNanA and rNanB were determined using eight MUNANA concentrations (3.13 to 400 μM) at pH 6.5. After 5 min the reaction was stopped, RFU were measured and converted to 4-MU concentrations according to the 4-MU standard curve. The Enzyme Kinetics Module of SigmaPlot 12.0 (Systat Software, San Jose, CA, USA) was applied to fit the data to the Michaelis–Menten equation using non-linear regression.
(§8) Both rNanA and rNanB were expressed in E. coli and their activity was confirmed by the FL assay at pH 5 (for rNanB only) and pH 6.5 (for both rNanA and rNanB). […] Activities of both recombinant S. pneumoniae NAs were further confirmed under more physiological conditions in a hemagglutination assay (HA assay; [Richter et al., 2015]). […]

[7] = biological target: T3, rNanB (Streptococcus pneumoniae serotype 4, UniProt Q54727); assay: HA assay (hemagglutination of NA-treated human erythrocytes with peanut lectin), inhibition of rNanB; format: biochemical, Streptococcus pneumoniae DSM20566; settings: 1 h incubation
T3 construct: encodes a C-terminal 6xHis-tagged NanB in size of 699 amino acid residues; 6xHis (C); made in house; host or cells: E. coli (vector pET-28a, plasmid pTNB20566)
T3 sequence (Q54727 30-697): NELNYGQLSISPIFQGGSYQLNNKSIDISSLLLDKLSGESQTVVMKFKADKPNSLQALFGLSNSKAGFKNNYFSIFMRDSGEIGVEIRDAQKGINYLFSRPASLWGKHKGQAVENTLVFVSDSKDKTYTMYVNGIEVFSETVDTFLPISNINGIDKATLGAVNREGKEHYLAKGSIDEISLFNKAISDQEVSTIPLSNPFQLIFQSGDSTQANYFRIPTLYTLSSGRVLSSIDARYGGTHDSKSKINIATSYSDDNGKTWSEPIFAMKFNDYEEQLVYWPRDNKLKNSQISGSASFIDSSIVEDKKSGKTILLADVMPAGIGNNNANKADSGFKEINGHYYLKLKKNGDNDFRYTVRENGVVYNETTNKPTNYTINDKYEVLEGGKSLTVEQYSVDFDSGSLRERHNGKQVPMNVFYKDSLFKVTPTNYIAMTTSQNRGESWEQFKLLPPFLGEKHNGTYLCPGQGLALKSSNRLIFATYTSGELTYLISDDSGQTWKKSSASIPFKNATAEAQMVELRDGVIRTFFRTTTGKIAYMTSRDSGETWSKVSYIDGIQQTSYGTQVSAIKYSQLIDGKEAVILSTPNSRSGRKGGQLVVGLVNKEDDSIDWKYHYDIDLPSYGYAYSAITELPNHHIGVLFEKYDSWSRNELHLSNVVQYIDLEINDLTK
Description: as §6

[8] = system: CC(=O)N[C@H]1[C@H]([C@H](O)[C@H](O)CO)O[C@@](Oc2ccc3c(C)cc(=O)oc3c2)(C(=O)O)C[C@@H]1O; assay: Fluorescence-based NA assay with eight MUNANA concentrations (3.13 to 400 uM) at pH 6.5, enzymes diluted 1:10,000, stopped after 5 min, 4-MU release fitted to the Michaelis-Menten equation by non-linear regression.; format: biochemical
Description: as §7, §8

[9] = biological target: T3, rNanB; assay: FL assay (MUNANA), inhibition of rNanB; format: biochemical, Streptococcus pneumoniae DSM20566; settings: for Inhibitory Concentration of NAIs against rNanB, FL assay: rNanB diluted 1:10,000, pH 6.5, MUNANA substrate
Description: as §7, §6

[10] = biological target: T1, rNanA; assay: FL assay (MUNANA), inhibition of rNanA; format: biochemical, Streptococcus pneumoniae DSM20566
Description: as §7, §6

| Compound | spread and yield of the virus in the presence of NanA ([1]; 48 h) | Percentage of Virus Yield after NAI Treatment, with rNanA ([1]; NAI 10 µM) [%] | Percentage of Virus Yield after NAI Treatment, without NA ([2]; NAI 10 µM) [%] | Inhibitory Concentration of NAIs against rNanA, HA assay [4] | Percentage of Virus Yield after NAI Treatment, with rNanA ([1]; NAI 20 µM) [%] | Percentage of Virus Yield after NAI Treatment, without NA ([2]; NAI 20 µM) [%] | Percentage of Virus Yield after NAI Treatment, with rNanB ([3]; NAI 20 µM) [%] | Inhibitory Concentration of NAIs against rNanB, HA assay [7] | Inhibitory Concentration of NAIs against rNanB, FL assay [9] | IC50 [10] [µM] | further results |
| --- | --- | --- | --- | --- | --- | --- | --- | --- | --- | --- | --- |
| CC(=O)N[C@H]1[C@H]([C@H](O)[C@H](O)CO)OC(C(=O)O)=C[C@@H]1O [DANA, N-acetyl-2,3-dehydro-2-deoxyneuraminic acid] | inhibited | 81.1 ± 27.9 | 78.9 ± 36.1 | 100.0 ± 0.0 µM |  |  |  |  |  |  | Percentage of Virus Yield after NAI Treatment, with rNanA ([1]; NAI 50 µM): 13.5 ± 8.3%; Percentage of Virus Yield after NAI Treatment, without NA ([2]; NAI 50 µM): 34.8 ± 17.4%; Percentage of Virus Yield after NAI Treatment, with rNanB ([3]; NAI 50 µM): 27.4 ± 1.0%; IC50 [5]: 3.6 ± 0.4 µM |
| CC(=O)N[C@H]1[C@H]([C@H](O)[C@H](O)CO)O[C@@](Oc2ccc3c(C)cc(=O)oc3c2)(C(=O)O)C[C@@H]1O [MUNANA, 2-(4-methylumbelliferyl)-α-D-N-acetylneuraminic acid sodium salt hydrate] |  |  |  |  |  |  |  |  |  |  | Km [6]: 684 µM |
| O=C(CCc1ccccc1)C[C@@H]1C[C@@H](c2ccccc2)c2c(cc(/C=C/c3ccccc3)oc2=O)O1 [Katsumadain A, katsumadain A] | inhibited | 67.3 ± 6.2 | 54.9 ± 25.7 | 3.2 ± 0.0 µM | 28.1 ± 13.7 | 29.0 ± 15.1 | 21.0 ± 4.1 | 5.4 ± 4.0 µM |  |  |  |
| rNanA (Streptococcus pneumoniae R6) |  |  |  |  |  |  |  |  |  |  | Km [8]: 39.70 µM |
| CC(=O)N[C@H]1[C@H]([C@H](O)[C@H](O)CO)OC(C(=O)O)=C[C@@H]1N=C(N)N [Zanamivir, zanamivir] |  |  |  | Not active |  |  |  | Not active | Not active | > 100 | antiviral effect in the presence of rNanA ([1]; 48 h, spread and yield): abolished; Percentage of Virus Yield after NAI Treatment, with rNanA ([1]; NAI 0.1 µM): 109.0 ± 35.5%; Percentage of Virus Yield after NAI Treatment, with rNanA ([1]; NAI 1 µM): 86.5 ± 46.2%; Percentage of Virus Yield after NAI Treatment, without NA ([2]; NAI 0.1 µM): 4.4 ± 1.5%; Percentage of Virus Yield after NAI Treatment, without NA ([2]; NAI 1 µM): 1.4 ± 1.0%; IC50 [9]: > 100 µM; Inhibitory Concentration of NAIs against rNanA, FL assay ([10]; rNanA diluted 1:10,000, pH 6.5, MUNANA substrate): Not active; Percentage of Virus Yield after NAI Treatment, with rNanB ([3]; NAI 0.1 µM): 6.2 ± 2.9%; Percentage of Virus Yield after NAI Treatment, with rNanB ([3]; NAI 1 µM): 0.7 ± 0.3% |
| COc1cc2oc(-c3ccc(O)cc3O)c(CC=C(C)C)c(=O)c2c(O)c1/C=C/C(C)C [Artocarpin] | inhibited | 67.3 ± 25.5 | 70.2 ± 10.5 | 10.0 ± 0.0 µM | 44.3 ± 11.0 | 84.8 ± 15.7 | 77.1 ± 37.8 | 10.0 ± 0.0 µM | Not active | 10 ± 6.3 |  |
